Columns and labels:
Assay type in all cases: in vivo
[1] = test system: redroot pigweed (Amaranthus retroflexus, AMARE); test: Pre-emerge test, greenhouse herbicide activity screening; conditions: rating scale 0-100, 14 days after application
In short: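 Compounds in acetone were track-sprayed at 187 l/ha, 15–1000 g ai/ha, onto sandy loam pots. Pre-emerge seeds were sown one day before spraying, with surface watering afterwards. Post-emerge plants were at the 2–3 leaf stage and sprayed with 0.25% v/v non-ionic surfactant. Injury was rated 0–100 at 14 days.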

[2] = test system: barnyardgrass (Echinochloa crus-galli, ECHCG); test: as above; conditions: rating scale 0-100, 14 days after application
In short: (§1)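 Compounds in acetone were track-sprayed at 15–1000 g ai/ha: pre-emergence onto soil sown the previous day, then top-watered to incorporate and later bottom-watered; post-emergence onto 2–3 leaf plants with 0.25% v/v surfactant, bottom-watered only. Ratings on a 0–100 phytotoxicity scale were taken at day 14.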

[3] = test system: green foxtail (Setaria viridis, SETVI); test: as above; conditions: rating scale 0-100, 14 days after application
In short: as §1

[4] = test system: velvetleaf (Abutilon theophrasti, ABUTH); test: as above; conditions: rating scale 0-100, 14 days after application
In short: as §1

[5] = test system: large crabgrass (Digitaria sanguinalis, DIGSA); test: as above; conditions: rating scale 0-100, 14 days after application
In short: as §1

[6] = test system: ivyleaf morningglory (Ipomoea hederacea, IPOHE); test: as above; conditions: rating scale 0-100, 14 days after application
In short: as §1

[7] = test system: johnsongrass (Sorghum halepense, SORHA); test: as above; conditions: rating scale 0-100, 14 days after application
In short: as §1

[8] = test system: common ragweed (Ambrosia artemisizfolia L., AMBEL); test: as above; conditions: rating scale 0-100, 14 days after application
In short: as §1

[9] = test system: sicklepod (Cassia obtusifolia, CASOB); test: as above; conditions: rating scale 0-100, 14 days after application
In short: as §1

[10] = test system: lambsquarters (Chenopodium album, CHEAL); test: as above; conditions: rating scale 0-100, 14 days after application
In short: as §1

[11] = test system: upland rice (Oryza sp., var. Tebonnet, RICE); test: Pre-emerge test, crop safety; conditions: rating scale 0-100, 14 days after application
In short: (§2)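 Sandy loam pots; pre-emerge: sown 1 d pre-spray, surface-watered after, then bottom-watered. Post-emerge: sown 8–21 d before, 2–3 leaf stage, + 0.25% v/v NIS, bottom-watered. Acetone, 187 l/ha track spray, 15–1000 g ai/ha. 0–100 injury score, day 14.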

[12] = test system: field corn (Zea mays L., var. Dekalb 535, CORN); test: Pre-emerge test, crop safety; conditions: rating scale 0-100, 14 days after application
In short: as §2

[13] = test system: upland rice (Oryza sp., var. Tebonnet, RICE); test: Post-emerge test, crop safety; conditions: rating scale 0-100 (0 no damage, 100 complete death), 14 days after application
In short: (§3)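 Rating: 0–100 visual injury, 14 DAA. Application: acetone, 187 l/ha, 15–1000 g ai/ha, flat-fan track sprayer with nozzle 40–45 cm above soil or canopy. Post-emerge runs used 0.25% v/v surfactant on 2–3 leaf plants.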

[14] = test system: field corn (Zea mays L., var. Dekalb 535, CORN); test: Post-emerge test, crop safety; conditions: rating scale 0-100 (0 no damage, 100 complete death), 14 days after application
In short: as §3

[15] = test system: barnyardgrass (Echinochloa crus-galli, ECHCG); test: Post-emerge test, greenhouse herbicide activity screening; conditions: rating scale 0-100 (0 no damage, 100 complete death), 14 days after application
In short: (§4)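 Herbicidal damage is scored 0 (none) to 100 (complete plant death) two weeks after a simulated field spray. Rates span 15–1000 g ai/ha, delivered in acetone at 187 l/ha. For post-emergence treatments, plants have 2–3 leaves and the spray carries 0.25% v/v non-ionic surfactant.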

[16] = test system: redroot pigweed (Amaranthus retroflexus, AMARE); test: as above; conditions: rating scale 0-100 (0 no damage, 100 complete death), 14 days after application
In short: as §4

[17] = test system: green foxtail (Setaria viridis, SETVI); test: as above; conditions: rating scale 0-100 (0 no damage, 100 complete death), 14 days after application
In short: as §4

[18] = test system: velvetleaf (Abutilon theophrasti, ABUTH); test: as above; conditions: rating scale 0-100 (0 no damage, 100 complete death), 14 days after application
In short: as §4

[19] = test system: large crabgrass (Digitaria sanguinalis, DIGSA); test: as above; conditions: rating scale 0-100 (0 no damage, 100 complete death), 14 days after application
In short: as §4

[20] = test system: ivyleaf morningglory (Ipomoea hederacea, IPOHE); test: as above; conditions: rating scale 0-100 (0 no damage, 100 complete death), 14 days after application
In short: as §4

[21] = test system: johnsongrass (Sorghum halepense, SORHA); test: as above; conditions: rating scale 0-100 (0 no damage, 100 complete death), 14 days after application
In short: as §4

[22] = test system: sicklepod (Cassia obtusifolia, CASOB); test: as above; conditions: rating scale 0-100 (0 no damage, 100 complete death), 14 days after application
In short: as §4

[23] = test system: lambsquarters (Chenopodium album, CHEAL); test: as above; conditions: rating scale 0-100 (0 no damage, 100 complete death), 14 days after application
In short: as §4

Q: Which “Pre-emerge herbicidal activity, phytotoxicity rating AMARE” value ([1]; 63 g ai/ha) does the source give for `CCCCCOC(=O)C(Cl)Cc1c(OC)c(Cl)cc(F)c1-n1c(=O)cc(C(F)(F)F)n(C)c1=O` (single isomer, unassigned) [14-10] here?
A: 100

Q: What about the “Pre-emerge herbicidal activity, phytotoxicity rating AMARE” value ([1]; 250 g ai/ha) of the same molecule?
A: 100

Q: What about the “Pre-emerge herbicidal activity, phytotoxicity rating ECHCG” value ([2]; 63 g ai/ha) of the same molecule?
A: 0

Q: What about the “Pre-emerge herbicidal activity, phytotoxicity rating ECHCG” value ([2]; 250 g ai/ha) of the same molecule?
A: 0

Q: And the “Pre-emerge herbicidal activity, phytotoxicity rating SETVI” value ([3]; 63 g ai/ha)?
A: 0

Q: And the “Pre-emerge herbicidal activity, phytotoxicity rating SETVI” value ([3]; 250 g ai/ha)?
A: 0

Q: What about the “Pre-emerge herbicidal activity, phytotoxicity rating ABUTH” value ([4]; 63 g ai/ha) of the same molecule?
A: 0

Q: What about the “Pre-emerge herbicidal activity, phytotoxicity rating ABUTH” value ([4]; 250 g ai/ha) of the same molecule?
A: 90

Q: And the “Pre-emerge herbicidal activity, phytotoxicity rating DIGSA” value ([5]; 63 g ai/ha)?
A: 0

Q: And the “Pre-emerge herbicidal activity, phytotoxicity rating DIGSA” value ([5]; 250 g ai/ha)?
A: 90

Q: What about the “Pre-emerge herbicidal activity, phytotoxicity rating IPOHE” value ([6]; 63 g ai/ha) of the same molecule?
A: 0

Q: And the “Pre-emerge herbicidal activity, phytotoxicity rating IPOHE” value ([6]; 250 g ai/ha)?
A: 70

Q: And the “Pre-emerge herbicidal activity, phytotoxicity rating SORHA” value ([7]; 63 g ai/ha)?
A: 0

Q: And the “Pre-emerge herbicidal activity, phytotoxicity rating SORHA” value ([7]; 250 g ai/ha)?
A: 30

Q: What about the “Pre-emerge herbicidal activity, phytotoxicity rating AMBEL” value ([8]; 63 g ai/ha) of the same molecule?
A: 50

Q: And the “Pre-emerge herbicidal activity, phytotoxicity rating AMBEL” value ([8]; 250 g ai/ha)?
A: 100

Q: And the “Pre-emerge herbicidal activity, phytotoxicity rating CASOB” value ([9]; 63 g ai/ha)?
A: 0

Q: What about the “Pre-emerge herbicidal activity, phytotoxicity rating CASOB” value ([9]; 250 g ai/ha) of the same molecule?
A: 0

Q: And the “Pre-emerge herbicidal activity, phytotoxicity rating CHEAL” value ([10]; 63 g ai/ha)?
A: 0

Q: What about the “Pre-emerge herbicidal activity, phytotoxicity rating CHEAL” value ([10]; 250 g ai/ha) of the same molecule?
A: 100

Q: What about the “Pre-emerge phytotoxicity rating, crop damage RICE” value ([11]; 63 g ai/ha) of the same molecule?
A: 20

Q: And the “Pre-emerge phytotoxicity rating, crop damage RICE” value ([11]; 250 g ai/ha)?
A: 30

Q: What about the “Pre-emerge phytotoxicity rating, crop damage CORN” value ([12]; 63 g ai/ha) of the same molecule?
A: 0

Q: What about the “Pre-emerge phytotoxicity rating, crop damage CORN” value ([12]; 250 g ai/ha) of the same molecule?
A: 40

Q: And the “Post-emerge phytotoxicity rating RICE (crop damage)” value ([13]; Rate 63 g ai/ha)?
A: 0

Q: And the “Post-emerge phytotoxicity rating RICE (crop damage)” value ([13]; Rate 250 g ai/ha)?
A: 20

Q: And the “Post-emerge phytotoxicity rating CORN (crop damage)” value ([14]; Rate 63 g ai/ha)?
A: 20

Q: And the “Post-emerge phytotoxicity rating CORN (crop damage)” value ([14]; Rate 250 g ai/ha)?
A: 60

Q: And the “Post-emerge Herbicidal Activity, phytotoxicity rating ECHCG” value ([15]; Rate 63 g ai/ha)?
A: 95

Q: What about the “Post-emerge Herbicidal Activity, phytotoxicity rating ECHCG” value ([15]; Rate 250 g ai/ha) of the same molecule?
A: 100

Q: And the “Post-emerge Herbicidal Activity, phytotoxicity rating AMARE” value ([16]; Rate 63 g ai/ha)?
A: 90

Q: What about the “Post-emerge Herbicidal Activity, phytotoxicity rating AMARE” value ([16]; Rate 250 g ai/ha) of the same molecule?
A: 100

Q: And the “Post-emerge Herbicidal Activity, phytotoxicity rating SETVI” value ([17]; Rate 63 g ai/ha)?
A: 50

Q: What about the “Post-emerge Herbicidal Activity, phytotoxicity rating SETVI” value ([17]; Rate 250 g ai/ha) of the same molecule?
A: 90

Q: What about the “Post-emerge Herbicidal Activity, phytotoxicity rating ABUTH” value ([18]; Rate 63 g ai/ha) of the same molecule?
A: 80

Q: And the “Post-emerge Herbicidal Activity, phytotoxicity rating ABUTH” value ([18]; Rate 250 g ai/ha)?
A: 100

Q: What about the “Post-emerge Herbicidal Activity, phytotoxicity rating DIGSA” value ([19]; Rate 63 g ai/ha) of the same molecule?
A: 10

Q: What about the “Post-emerge Herbicidal Activity, phytotoxicity rating DIGSA” value ([19]; Rate 250 g ai/ha) of the same molecule?
A: 100

Q: What about the “Post-emerge Herbicidal Activity, phytotoxicity rating IPOHE” value ([20]; Rate 63 g ai/ha) of the same molecule?
A: 70

Q: What about the “Post-emerge Herbicidal Activity, phytotoxicity rating IPOHE” value ([20]; Rate 250 g ai/ha) of the same molecule?
A: 80

Q: What about the “Post-emerge Herbicidal Activity, phytotoxicity rating SORHA” value ([21]; Rate 63 g ai/ha) of the same molecule?
A: 20

Q: What about the “Post-emerge Herbicidal Activity, phytotoxicity rating SORHA” value ([21]; Rate 250 g ai/ha) of the same molecule?
A: 50

Q: And the “Post-emerge Herbicidal Activity, phytotoxicity rating CASOB” value ([22]; Rate 63 g ai/ha)?
A: 80

Q: And the “Post-emerge Herbicidal Activity, phytotoxicity rating CASOB” value ([22]; Rate 250 g ai/ha)?
A: 90

Q: What about the “Post-emerge Herbicidal Activity, phytotoxicity rating CHEAL” value ([23]; Rate 63 g ai/ha) of the same molecule?
A: 90

Q: What about the “Post-emerge Herbicidal Activity, phytotoxicity rating CHEAL” value ([23]; Rate 250 g ai/ha) of the same molecule?
A: 100

Source: patent US6355799B1, “Substituted benzene compounds, process for their preparation, and herbicidal and defoliant compositions containing them” (ISK Americas Incorporated, priority 1997, dated 2002)
